Results reported in patent US7094909B2, “HIV protease inhibitors, compositions containing the same, their pharmaceutical uses and materials for their synthesis” (priority 2001, dated 2006).

Assays:
[1] = target: T1, HIV-1 protease (Q7S mutant form) (Human immunodeficiency virus type 1 group M subtype B, UniProt P04585, Q495S); test: HIV-1 Protease RET assay; type: biochemical; details: Ave. Ki (nM), RET assay, Q7S enzyme, Morrison tight binding fit
T1 construct: made in house
Method in brief: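 Q7S HIV-1 protease, refolded from urea, 2 nM active dimer with 5 μM EDANS/DABCYL peptide cleaved at Tyr-Pro; fluorescence 340/490 nm. 12 min at 37 °C in 0.1M sodium acetate pH 4.8, 1M NaCl, 10% DMSO. Ki from Morrison tight-binding fit.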

[2] = test system: HIV-1 (HIV-1 RF, HIV-1 NL4-3) in CEM-SS / MT-2 cells; test: Cytopathic effect (CPE) inhibition assay (XTT/MTT dye reduction); type: cell-based; details: Human immunodeficiency virus 1, NL43; read-out: Ave CPE EC50
Method in brief: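 CEM-SS or MT-2 cells were infected with HIV-1 RF or NL4-3 (moi 0.025–0.819) and plated at 2×10^4 cells/well with half-log compound dilutions for 6 days. Viability was read by XTT formazan at 450 nm after 4 h. EC50 restores formazan to 50% of uninfected untreated cells, CC50 halves it in uninfected cells, and TI = CC50/EC50.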

Cc1ccccc1CNC(=O)[C@H]1N(C(=O)[C@@H](O)[C@H](Cc2ccccc2)NC(=O)CCCO)CSC1(C)C [Example B85]
Ki [1]: 1.3 nM
EC50 [2]: 363 nM

Cc1c(O)cccc1C(=O)N[C@@H](Cc1ccccc1)[C@H](O)C(=O)N1CC(F)(F)C[C@H]1C(=O)N[C@H]1CCCc2ccccc21 [Example C3, (S)-4,4-Difluoro-1-((2S,3S)-2-hydroxy-3-{[1-(3-hydroxy-2-methyl-phenyl)-methanoyl]-amino}-4-phenyl-butanoyl)-pyrrolidine-2-carboxylic acid (1,2,3,4-tetrahydro-naphthalen-1-yl)-amide]
Ki [1]: 0.16 nM
EC50 [2]: 486 nM

CCCNC(=O)[C@@H]1CC(F)(F)CN1C(=O)[C@@H](O)[C@H](Cc1ccccc1)NC(=O)c1cccc(O)c1C [Example C7, 4,4-Difluoro-1-[2-hydroxy-3-(3-hydroxy-2-methyl-benzoylamino)-4-phenyl-butyryl]-pyrrolidine-2-carboxylic acid propylamide]
Ki [1]: 3 nM
EC50 [2]: 347 nM

Cc1c(O)cccc1C(=O)N[C@@H](Cc1ccccc1)[C@H](O)C(=O)N1CC(F)(F)C[C@H]1C(=O)NCc1ccccc1Cl [Example C10, 4,4-Difluoro-1-[2-hydroxy-3-(3-hydroxy-2-methyl-benzoylamino)-4-phenyl-butyryl]-pyrrolidine-2-carboxylic acid 2-chloro-benzylamide]
Ki [1]: 1.5 nM
EC50 [2]: 1290 nM

Cc1c(O)cccc1C(=O)N[C@@H](Cc1ccccc1)[C@H](O)C(=O)N1CC(F)(F)C[C@H]1C(=O)NCc1ccc2c(c1)OCO2 [Example C11, 4,4-Difluoro-1-[2-hydroxy-3-(3-hydroxy-2-methyl-benzoylamino)-4-phenyl-butyryl]-pyrrolidine-2-carboxylic acid (benzo[1,3]dioxol-5-ylmethyl)-amide]
Ki [1]: 2.8 nM
EC50 [2]: 1310 nM

COc1cccc(CNC(=O)[C@@H]2CC(F)(F)CN2C(=O)[C@@H](O)[C@H](Cc2ccccc2)NC(=O)c2cccc(O)c2C)c1 [Example C12, (S)-4,4-Difluoro-1-[(2S,3S)-2-hydroxy-3-(3-hydroxy-2-methyl-benzoylamino)-4-phenyl-butyryl]-pyrrolidine-2-carboxylic acid 3-methoxy-benzylamide]
Ki [1]: 2.7 nM
EC50 [2]: 1770 nM

COc1ccc(CNC(=O)[C@@H]2CC(F)(F)CN2C(=O)[C@@H](O)[C@H](Cc2ccccc2)NC(=O)c2cccc(O)c2C)cc1 [Example C13, (S)-4,4-Difluoro-1-[(2S,3S)-2-hydroxy-3-(3-hydroxy-2-methyl-benzoylamino)-4-phenyl-butyryl]-pyrrolidine-2-carboxylic acid 4-methoxy-benzylamide]
Ki [1]: 0.59 nM
EC50 [2]: 1180 nM

Cc1c(O)cccc1C(=O)N[C@@H](Cc1ccccc1)[C@H](O)C(=O)N1CC(F)(F)C(C)(C)[C@H]1C(=O)NCc1ccco1 [Example C20, (S)-4,4-Difluoro-1-[(2S,3S)-2-hydroxy-3-(3-hydroxy-2-methyl-benzoylamino)-4-phenyl-butyryl]-3,3-dimethyl-pyrrolidine-2-carboxylic acid (furan-2-ylmethyl)-amide]
Ki [1]: < 0.1 nM
EC50 [2]: 35 nM

Cc1ccccc1CNC(=O)[C@@H]1CC(F)(F)CN1C(=O)[C@@H](O)[C@H](Cc1ccccc1)NC(=O)O[C@H]1CCOC1 [Example C41, {(1S,2S)-1-Benzyl-3-[(S)-4,4-difluoro-2-(2-methyl-benzylcarbamoyl)-pyrrolidin-1-yl]-2-hydroxy-3-oxo-propyl}-carbamic acid (S)-(tetrahydro-furan-3-yl)ester]
Ki [1]: 1.3 nM
EC50 [2]: 1430 nM

Cc1ccccc1CNC(=O)[C@@H]1CC(F)(F)CN1C(=O)[C@@H](O)[C@H](Cc1ccccc1)NC(=O)c1ccc(C)c(O)c1C [Example C42, (S)-4,4-Difluoro-1-((2S,3S)-2-hydroxy-3-{[1-(3-hydroxy-2,4-dimethyl-phenyl)-methanoyl]-amino}-4-phenyl-butanoyl)-pyrrolidine-2-carboxylic acid 2-methyl-benzylamide]
Ki [1]: 4 nM
EC50 [2]: 3200 nM
